Tests used:
[1] = test system: PDAC cell lines: MIA PaCa-2; PANC-1; Capan-1; AsPC-1; assay: Cell proliferation / viability assay (CellTiter-Glo); format: cell-based; settings: for cell proliferation (viability): PDAC cells, 48 h and 72 h, Cell-Titer Glo
Method: FIGS. 2A-2D are viability curves of DMDAPatA and DMPatA in four representative PDAC cell lines: MIA PaCa-2; Panc-1; Capan-1; and AsPC-1. PDAC cell lines were treated with DMPatA and DMDAPatA at the indicated concentrations for 48 h and 72 h. Cell viability was determined using Cell-Titer Glo (Promega). Viability (%, Y-axis) was plotted against drug concentration (log nM, X-axis). In the figures, MZ is DMPatA and PatA is DMDAPatA.
See Example 2. FIGS. 2A-2D are viability curves of DMDAPatA and DMPatA in four representative PDAC cell lines: MIA PaCa-2; PANC-1; Capan-1; and AsPC-1.
In this example, the effectiveness of DMPatA and DMDAPatA in reducing the proliferation of PDAC cancer cell lines is described.
Cell viability was measured using CellTiter-Glo® reagent (Promega, #G7570), according to the manufacturer's instructions. Briefly, cells were seeded at a density of […] in white 96-well plates and allowed to grow overnight. Cells were then treated with/without the combination and single agents as described earlier and incubated 37° C. and 5% CO2 for appropriate time points. After incubation assay reagent was added to the cells and luminescent signal values were quantified using microplate reader (PHERAstar® FS, BMG LABTECH, Ortenberg, Germany).

[2] = test system: Cyclin D1; assay: Western blot of oncoproteins in PDAC cell lines; format: cell-based; settings: PDAC cell lines MIA PaCa-2 and AsPC-1, western blot
Source text: (§1) FIGS. 3A and 3B are images of western blots showing the effect of DMDAPatA and DMPatA in PDAC cell lines (MiaPaca-2 and AsPc-1). In the figures, MZ735 is DMPatA and PatA is DMDAPatA.
(§2) FIGS. 5A and 5B are images of western blots showing the effect of DMPatA and DMDAPatA on oncoproteins c-MYC and Cyclin D1 in PDAC cell lines: MIA PaCa-2; PANC-1; Capan-1; and AsPC-1. In the figures, MZ is DMPatA and PatA is DMDAPatA.
(§3) eIF4A inhibitors selectively repress the expression levels of key proteins in PDAC cell lines. FIGS. 3A and 3B are images of western blots showing the effect of DMDAPatA and DMPatA in PDAC cell lines (MIA PaCa-2 and AsPC-1). […] These proteins are commonly used as controls in western blot analysis and are so-called because they are typically not susceptible to agents that alter gene or protein expression.
(§4) FIGS. 5A and 5B are images of western blots showing the effect of DMPatA and DMDAPatA on oncoproteins c-MYC and Cyclin D1 in PDAC cell lines: MIA PaCa-2; PANC-1; Capan-1; and AsPC-1.

[3] = test system: c-MYC; assay: Western blot of oncoproteins in PDAC cell lines; format: cell-based; settings: PDAC cell lines MIA PaCa-2 and AsPC-1, western blot
Source text: as §1, §2, §3, §4

[4] = test system: hyaluronic acid; assay: Hyaluronic acid staining (biotinylated-HABP, confocal imaging, CTCF); format: cell-based; settings: MIA PaCa-2 cells, 5 nM DMPatA, 24 h versus untreated control, CTCF (P<0.05)
Method: (§5) CD44 is the cell surface receptor for hyaluronic acid. Dense stroma with high levels of hyaluronic acid and extracellular matrix are among factors that are said to contribute to drug resistance in PDAC due to reduced permeability of anticancer therapies. Reduction of CD44 could facilitate the activity of chemotherapy or other combination therapy. MIA PaCa-2 cells were treated with 5 nM of DMPatA for 24 h versus untreated control. Cells were stained for HA using biotinylated-HABP and anti-CD44. FIG. 6A compares the analysis of the corrected total cell fluorescence (CTCF) based on data extracted from confocal imaging (P<0.05) and FIG. 6B compares western blot showing the effect of DMPatA and DMDAPatA on stromal proteins HAS3 and CD44. In the figures, MZ and MZ735 are DMPatA and PatA is DMDAPatA.
(§6) MIA PaCa-2 cells were treated with 5 nM of DMPatA for 24 h versus untreated control. Cells were stained for HA using biotinylated-HABP and anti-CD44. FIG. 6A compares the analysis of the corrected total cell fluorescence (CTCF) based on data extracted from confocal imaging (P<0.05) and FIG. 6B compares western blot showing the effect of DMPatA and DMDAPatA on stromal proteins HAS3 and CD44.

[5] = test system: CD44; assay: CD44 level (anti-CD44 confocal imaging, western blot); format: cell-based; settings: MIA PaCa-2 cells, 5 nM DMPatA, 24 h, CTCF (P<0.05)
Method: as §5, §6

[6] = Protein binding in human plasma; format: in vitro ADME
[7] = compared with parent natural product PatA; cited from earlier work
[8] = test system: Mia-Paca-2 cells; assay: Mouse xenograph model (subcutaneous Mia-Paca-2 tumors); format: in vivo, female athymic nude mice
Source text: In this example, the effectiveness of DMPatA in reducing tumor size in a mouse xenograph model is described.
Intraperitoneal therapy for PDAC. One of the most difficult complications of pancreatic cancer is the development of peritoneal carcinomatosis, which may occur as the presenting manifestation of PDAC, much as occurs with ovarian cancer, or may appear late in the course of the disease. In either case, the prognosis for peritoneal carcinomatosis and cytology-positive ascites is grim, at times portending survival of only a few weeks. […] The second major problem is that recurrent ascites requires frequent large volume paracentesis—which depletes the patient of protein and nutrients. […] Des-methyl pateamine A (DMPatA, MZ735) can be used as a novel intraperitoneal therapy able to directly treat intraperitoneal carcinomatosis. In certain embodiments, the safe intraperitoneal dose is 0.075-0.1 mg/kg, as established in a mouse xenograpgh model.
Fifteen female athymic nude mice were implanted with 5×10^6 Mia-Paca-2 cells, injected subcutaneously into the right flank with 50% Matrigel. Once tumors reached 100-200 mm^3 in volume, mice were randomized and enrolled into the study with three treatment groups including vehicle, MZ735 0.075, MZ735 0.1 mg/kg.
Mice were dosed once every four days interperitoneally (IP) for 28 days. Weights were taken twice per week to ensure overall health. All formulations were prepared on a day prior to, or on the day of dosing, using a serial dilution method and stored at 4° C. Formulations for this study were made using a vehicle of 10% Ethanol, 10% Cremophor EL, 4% glucose, and 76% PBS.
Body weights and tumor measurements were recorded twice weekly per OPTIC core-Tumor Growth Measurement at Columbia University.
At the end of the study mice were euthanized via CO2 asphyxiation, per IACUC approved Euthanasia protocol at Columbia University.

[9] = test system: GAPDH and beta-actin; assay: Western blot of housekeeping proteins; format: cell-based; settings: PDAC cell lines
Source text: as §1, §3

Row | Compound | cell proliferation (viability) [1] | protein level of Cyclin D1 [2] | protein level of c-MYC [3] | levels of hyaluronic acid [4] | levels of CD44 [5] | protein binding in human plasma [6] | stability relative to PatA [7] | volume of subcutaneously implanted tumors ([8]; 0.075-0.1 mg/kg IP once every four days for 28 days, Mia-Paca-2 xenograft) | absorption via the peritoneum ([8]; intraperitoneal dose 0.075-0.1 mg/kg, mouse) | safe intraperitoneal dose ([8]; mouse xenograph model, intraperitoneal) [mg/kg] | potency relative to DMDAPatA ([1]; viability curves in four PDAC cell lines) | expression of housekeeping proteins GAPDH and beta-actin [9]
1 | CC(/C=C/C(C)=C/[C@@H]1Cc2nc(cs2)CCCCC(=O)O[C@@H](C)C/C(C)=C/C=C\C(=O)O1)=C\CN(C)C [DMDAPatA, des-methyl des-amino pateamine A] | inhibit cell proliferation | inhibiting the protein level | inhibiting the protein level | reduce the levels | reduce the levels | highly protein bound | more stable | – | – | – | – | –
2 | des-methyl pateamine A [DMPatA] | inhibit cell proliferation | inhibiting the protein level | inhibiting the protein level | reduce the levels | reduce the levels | – | – | reduce the volume of subcutaneously implanted tumors | can be absorbed via the peritoneum | 0.075 to 0.1 | greater potency relative to DMDAPatA | stably expressed
